Data set [1] is described as follows: Chromatographic hydrophobicity index, log D of compound at pH 7.4 by HPLC analysis. The data set is classed as physicochemical. Particulars: buffer.
Another data set deals with NIH3T3. Put plainly: Cytotoxicity against serum-starved mouse NIH3T3 cells transfected with TrkB assessed as cell death at 1 uM measured after 24 hrs by CellTox green dye/Hoechst staining based microscopy. The class given is toxicity. Particulars: nih3t3, 24 h.
In data set [2] the test system is SH-SY5Y. Put plainly: Induction of neurite outgrowth in retinoid acid-treated human SH-SY5Y cells at 100 nM incubated for 2 days by fluorescence microscopy relative to retinoid acid. The data set is classed as functional. Particulars: time 2 day.
The target in data set [3] is BDNF/NT-3 growth factors receptor (Mus musculus) (UniProt P15209). Put plainly: Induction of TrkB phosphorylation transfected in mouse NIH3T3 cells at 1 uM incubated for 20 mins followed by serum deprivation for 6 hrs by Western blot analysis. Particulars: filed as activator, time 6.33 hrs. The data set is classed as cell-based. On the technique in general: In western blotting, separated proteins are transferred to a membrane and probed.
Chain of BDNF/NT-3 growth factors receptor (Mus musculus) (P15209 whole entry): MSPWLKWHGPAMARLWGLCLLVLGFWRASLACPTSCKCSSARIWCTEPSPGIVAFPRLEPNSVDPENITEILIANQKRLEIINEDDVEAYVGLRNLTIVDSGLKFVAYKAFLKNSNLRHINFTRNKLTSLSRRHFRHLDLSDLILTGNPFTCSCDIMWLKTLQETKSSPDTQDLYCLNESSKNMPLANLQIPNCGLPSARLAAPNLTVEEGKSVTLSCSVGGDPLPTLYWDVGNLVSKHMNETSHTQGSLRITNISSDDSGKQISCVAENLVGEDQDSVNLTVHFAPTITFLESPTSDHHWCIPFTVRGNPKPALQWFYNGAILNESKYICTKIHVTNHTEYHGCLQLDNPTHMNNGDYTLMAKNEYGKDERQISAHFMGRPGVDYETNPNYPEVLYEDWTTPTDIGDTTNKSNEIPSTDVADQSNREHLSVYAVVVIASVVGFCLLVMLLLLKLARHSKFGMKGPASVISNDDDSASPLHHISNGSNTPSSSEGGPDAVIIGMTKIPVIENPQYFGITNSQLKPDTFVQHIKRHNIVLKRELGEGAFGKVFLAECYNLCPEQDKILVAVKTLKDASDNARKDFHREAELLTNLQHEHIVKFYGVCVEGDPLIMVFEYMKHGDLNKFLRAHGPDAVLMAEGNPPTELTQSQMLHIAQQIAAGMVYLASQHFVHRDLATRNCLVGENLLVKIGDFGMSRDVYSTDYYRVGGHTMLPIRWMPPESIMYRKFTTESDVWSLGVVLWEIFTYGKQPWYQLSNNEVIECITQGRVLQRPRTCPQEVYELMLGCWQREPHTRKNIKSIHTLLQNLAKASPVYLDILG

A further data set relates to Hepatocyte. Put plainly: Hepatotoxicity against mouse hepatocytes at 1 uM incubated for 24 hrs by HCS analysis. The class given is functional, cell-based.
Data set [4] can be described thus: Chromatographic hydrophobicity index of compound at pH 7.4 by HPLC analysis. The data set is classed as physicochemical.
In data set [5] the test system is Cortical neurone. Put plainly: Neurotoxicity against Sprague-Dawley rat primary cortical neurons at 10 uM incubated for 24 hrs by HCS analysis. The class given is functional, cell-based.
Data set [6] deals with Cortical neurone. The data set is described as follows: Neurotoxicity against Sprague-Dawley rat primary cortical neurons at 100 uM incubated for 24 hrs by HCS analysis. The class given is functional, cell-based.
In data set [7] the test system is Cortical neurone. The data set is described as follows: Neurotoxicity against Sprague-Dawley rat primary cortical neurons at 1 uM incubated for 24 hrs by HCS analysis. The data set is classed as functional, cell-based.
Data set [8] has as its system SH-SY5Y. Put plainly: Induction of neurite outgrowth in retinoid acid-treated human SH-SY5Y cells at 1000 nM incubated for 2 days by fluorescence microscopy relative to retinoid acid. The data set is classed as functional. Particulars: time 2 day.
The test system of data set [9] is SH-SY5Y. The data set is described as follows: Induction of neurite outgrowth in retinoid acid-treated human SH-SY5Y cells at 10 nM incubated for 2 days by fluorescence microscopy relative to retinoid acid. The class given is functional. Particulars: time 2 day.
Data set [10] addresses BDNF/NT-3 growth factors receptor (Mus musculus) (UniProt P15209). The data set is described as follows: Induction of TrkB phosphorylation in mouse primary cortical astrocytes at 1 uM incubated for 20 mins followed by serum deprivation for 6 hrs by Western blot analysis. The data set is classed as cell-based. Particulars: Cortex, filed as activator, time 6.33 hrs.
Data set [11] deals with Primary spinal motor neuron. The data set is described as follows: Neuroprotective activity against glutamate-treated Wistar rat primary spinal motor neurons assessed as increase in neurite network pretreated for 1 hr followed by glutamate treatment for 20 mins and subsequent washout of compound and glutamate and re-treatment of compound for 48 hrs by imaging analysis. The data set is classed as functional, cell-based. Particulars: dose 0.5-1000 nM, time 49.33 hrs.

Data set [12] deals with Primary spinal motor neuron. The data set is described as follows: Neuroprotective activity against glutamate-treated Wistar rat primary spinal motor neurons assessed as neuronal survival pretreated for 1 hr followed by glutamate treatment for 20 mins and subsequent washout of compound and glutamate and re-treatment of compound for 48 hrs by imaging analysis. Particulars: dose 0.5-1000 nM, time 49.33 hrs. The class given is functional, cell-based.

In data set [13] the test system is Primary spinal motor neuron. Put plainly: Neuroprotective activity against glutamate-treated Wistar rat primary spinal motor neurons assessed as decrease in TDP43 accumulation pretreated for 1 hr followed by glutamate treatment for 20 mins and subsequent washout of compound and glutamate and re-treatment of compound for 48 hrs by imaging analysis. The data set is classed as functional, cell-based. Particulars: dose 0.5-1000 nM, time 49.33 hrs.

The target of data set [14] is BDNF/NT-3 growth factors receptor (Mus musculus) (UniProt P15209). The data set is described as follows: Induction of TrkB phosphorylation in mouse primary cortical astrocytes assessed as Akt phosphorylation at 1 uM incubated for 20 mins followed by serum deprivation for 6 hrs by Western blot analysis. The class given is cell-based. Particulars: Cortex, filed as activator, time 6.33 hrs.

Active and inactive are the calls of the source. The rule behind the calls is not given here.

A word on the chromatographic logD: it is lipophilicity estimated from chromatographic retention.

On to `CCCN1CCC(CNC(=O)c2cc(C(=O)NCCO)cc(C(=O)NCCO)c2)CC1`, for which, in data set [1], the chromatographic logD was -0.34. In addition, the Activity result in the data set with NIH3T3 was “Non-Toxic”; in the data set with SH-SY5Y [2], 102.23%; in the data set with SH-SY5Y [8], 104.04%; in the data set on SH-SY5Y [9], 97.67%. The result in [3] was Active. In addition, the result in the data set with Hepatocyte, in the data set with Cortical neurone [5], with Cortical neurone [6] and in the data set on Cortical neurone [7] was inactive. In [4], this compound yielded a CHI of 17.6.
Compound `O=C(NCCO)c1cc(C(=O)NCCO)cc(C(=O)NCC2CCN(CC3CCCCC3)CC2)c1` gave a chromatographic logD in data set [1] of 0.48. For the same compound, the Activity entry was “Non-Toxic” in the data set on NIH3T3; 181.13% with SH-SY5Y [2]; 113.54% with SH-SY5Y [8]; “Dose-Dependent Effect” in [11]; “Dose-Dependent Effect” in data set [12]; 183.59% with SH-SY5Y [9]. Moreover, the Activity entry in data set [13] is “Dose-Dependent Effect”. In addition, the outcome in data set [3], in [10] and in data set [14] was Active. Also, in data set [4], the CHI worked out at 33.4.
Compound `CC[C@H](C)[C@H](N)C(=O)NCCNC(=O)c1cc(C(=O)NCCO)cc(C(=O)NCCO)c1.Cl` had a chromatographic logD in data set [1] of -0.24. Also, the Activity in the data set with SH-SY5Y [2] worked out at 158.93%; in the data set on SH-SY5Y [8], 143.82%; in the data set on SH-SY5Y [9], 139.04%. In data set [4], this compound had a CHI of 19.5. Also, the result in the data set on Cortical neurone [5] and with Cortical neurone [7] was inactive.
On to `O=C(NCCO)c1cc(C(=O)NCCO)cc(C(=O)NCCN2CCOCC2)c1`, for which, in data set [1], the chromatographic logD is -0.31. Also, the figures for the Activity in the data set on SH-SY5Y [2], with SH-SY5Y [8] and in the data set with SH-SY5Y [9] were 107.68%, 114.91% and 90.19%, respectively. Besides, the result in the data set on Hepatocyte and in the data set on Cortical neurone [7] was inactive. This compound also yielded a CHI in data set [4] of 18.1. For the same compound, the outcome in [10] and in [14] was Active.
In data set [1], `O=C(NCCO)c1cc(C(=O)NCCO)cc(C(=O)NCCCN2CCOCC2)c1` gave a chromatographic logD of -0.28. Besides, the Activity in the data set with SH-SY5Y [2] was determined as 127.21%; with SH-SY5Y [8], 122.77%; in the data set with SH-SY5Y [9], 121.11%. The compound further displayed a CHI in data set [4] of 18.7. Besides, the outcome in the data set with Cortical neurone [7] was inactive.
As to `O=C(NCCO)c1cc(C(=O)NCCO)cc(C(=O)NCCO)c1`, the chromatographic logD in data set [1] is -0.53. Besides, the Activity entry was “Non-Toxic” with NIH3T3, 124.7% in the data set with SH-SY5Y [2], 113.86% in the data set with SH-SY5Y [8] and 120.18% in the data set with SH-SY5Y [9]. Also, the outcome in [3], in [10] and in data set [14] was Active. The CHI in [4] is 13.8. Further, the outcome in the data set on Cortical neurone [5], in the data set with Cortical neurone [6] and with Cortical neurone [7] was inactive.

Values taken from ChEMBL document CHEMBL5321207, “Design, synthesis and biological characterization of novel activators of the TrkB neurotrophin receptor” (Eur J Med Chem, 2023).
